Key:
Assay in all cases: relative viability (nuclei count vs DMSO), 5 days (fraction); higher = more cells survive
[1] = compound: Nc1nc(Nc2ccc3c(c2)CC[C@@H](N2CCCC2)CC3)nn1-c1cc2c(nn1)-c1ccccc1CCC2 [Bemcentinib] + O=C(c1cc(Cc2n[nH]c(=O)c3ccccc23)ccc1F)N1CCN(C(=O)C2CC2)CC1 [Olaparib] (partner 8 µM)
Procedure, shortened: (§1)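 Lung cancer cell lines, seeded in 1536-well plates, were treated the following day by pin tool with a single drug or with five library-drug doses (not always all listed) in √10 steps on top of a fixed anchor-drug dose. Cells were fixed and nuclei stained in one step after 5 days, and nuclei were counted. Relative viability is the nuclei count for treated wells divided by that for vehicle wells, reported as medians of duplicate plates.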

[2] = compound: Nc1nc(Nc2ccc3c(c2)CC[C@@H](N2CCCC2)CC3)nn1-c1cc2c(nn1)-c1ccccc1CCC2 [Bemcentinib] + N=C(N)NC(=N)NCCc1ccccc1 [Phenformin] (partner 250 µM)
Procedure, shortened: as §1

[3] = compound: CNC(=O)c1ccccc1Sc1ccc2c(/C=C/c3ccccn3)n[nH]c2c1 [Axitinib] + CS(=O)(=O)CCNCc1ccc(-c2ccc3ncnc(Nc4ccc(OCc5cccc(F)c5)c(Cl)c4)c3c2)o1 [Lapatinib] (partner 2 µM)
Procedure, shortened: as §1

[4] = compound: CC1=CC=C(C=C1)C(=O)CN2C3=C(CCCC3)SC2=N [Pifithrin_alpha] + N=C(N)NC(=N)NCCc1ccccc1 [Phenformin] (partner 250 µM)
Procedure, shortened: as §1

Row | Cell Line | relative viability ([1]; first compound 0.04 µM) | relative viability ([1]; first compound 0.1265 µM) | relative viability ([1]; first compound 0.4 µM) | relative viability ([1]; first compound 1.265 µM) | relative viability ([1]; first compound 4 µM) | relative viability ([2]; first compound 0.04 µM) | relative viability ([2]; first compound 0.1265 µM) | relative viability ([2]; first compound 0.4 µM) | relative viability ([2]; first compound 1.265 µM) | relative viability ([2]; first compound 4 µM) | relative viability ([3]; first compound 0.005 µM) | relative viability ([3]; first compound 0.01581 µM) | relative viability ([3]; first compound 0.05 µM) | relative viability ([3]; first compound 0.1581 µM) | relative viability ([3]; first compound 0.5 µM) | relative viability ([4]; first compound 1 µM) | relative viability ([4]; first compound 3.162 µM) | relative viability ([4]; first compound 10 µM) | relative viability ([4]; first compound 100 µM) | relative viability ([4]; first compound 31.62 µM)
1 | COR-L23 | 0.38 | 0.314 | 0.371 | 0.328 | 0.344 | 0.425 | 0.44 | 0.449 | 0.465 | 0.493 | 0.975 | 0.963 | 1.12 | 0.808 | 1.12 | 0.465 | 0.46 | 0.426 | 0.509 | –
2 | COR-L 105 | 0.635 | 0.762 | 0.752 | 0.737 | 0.64 | 0.529 | 0.432 | 0.561 | 0.494 | 0.45 | 0.355 | 0.357 | 0.328 | 0.381 | 0.38 | 0.525 | 0.484 | 0.55 | 0.403 | 0.436
3 | EKVX | 0.88 | 0.852 | 0.829 | 1.09 | 0.939 | 0.256 | 0.215 | 0.239 | 0.277 | 0.237 | 0.178 | 0.226 | 0.222 | 0.216 | 0.183 | 0.207 | – | 0.201 | 0.199 | 0.213
4 | EMC-BAC-2 | 0.491 | 0.511 | 0.488 | 0.468 | 0.482 | 0.515 | 0.516 | 0.556 | 0.507 | 0.514 | 0.917 | 0.869 | 0.947 | 0.915 | 0.803 | 0.504 | 0.511 | 0.478 | 0.556 | –
5 | EPLC-272H | 0.753 | 1.02 | 0.975 | 0.833 | 0.761 | 0.372 | 0.273 | 0.27 | 0.296 | 0.352 | 0.97 | 0.889 | 0.906 | 0.975 | 0.94 | 0.266 | 0.305 | 0.364 | 0.222 | 0.246
6 | H3255 | 0.533 | 0.589 | 0.537 | 0.599 | 0.491 | 0.383 | 0.318 | 0.354 | 0.418 | 0.361 | 0.272 | 0.241 | 0.244 | 0.263 | 0.239 | 0.364 | 0.97 | 0.384 | 0.342 | 0.389
7 | HARA | 0.778 | 1.17 | 1.14 | 0.929 | 0.76 | 0.41 | 0.541 | 0.539 | 0.434 | 0.498 | 0.63 | 0.593 | 0.718 | 0.621 | 0.602 | – | 0.441 | 0.409 | 0.407 | –
8 | HCC-15 | 0.7 | 0.712 | 0.771 | 0.655 | 0.748 | 0.486 | 0.532 | 0.516 | 0.465 | 0.499 | 0.884 | 0.872 | 0.831 | 0.836 | 0.848 | 0.487 | 0.449 | 0.435 | 0.279 | 0.249
9 | HCC-44 | 1.04 | 1.04 | 0.981 | 0.974 | 1.02 | 0.155 | 0.28 | 0.175 | 0.187 | 0.149 | 1.08 | 1.02 | 1.01 | 1.09 | 1.01 | 0.17 | 0.164 | 0.171 | 0.178 | 0.133
10 | HCC-78 | 0.919 | 0.794 | 0.971 | 0.808 | 0.833 | 0.639 | 0.656 | 0.742 | – | 0.668 | 0.865 | 0.724 | 0.642 | 0.701 | 0.47 | 0.433 | 0.727 | 0.664 | 0.69 | 0.645
11 | HCC-366 | 0.421 | 0.35 | 0.415 | 0.387 | 0.353 | 0.604 | 0.63 | 0.638 | 0.653 | 0.587 | 0.99 | 0.961 | 1.09 | 1.03 | 1.16 | 0.662 | 0.658 | 0.618 | 0.533 | –
12 | HCC-827 | 0.669 | 0.691 | 0.554 | 0.623 | 0.625 | 0.413 | 0.375 | 0.43 | 0.431 | 0.419 | 0.209 | 0.169 | 0.138 | 0.186 | 0.212 | 0.438 | 0.432 | 0.414 | 0.395 | 0.409
13 | HOP-62 | 0.342 | 0.621 | 0.575 | 0.528 | 0.472 | 0.694 | 0.707 | 0.834 | 0.704 | 0.645 | 0.891 | 0.883 | 1.01 | 0.863 | 1.06 | 0.601 | 0.903 | 0.749 | 0.81 | 0.59
14 | LC-2-ad | 0.719 | 0.676 | 0.767 | 0.711 | 0.655 | 0.535 | 0.601 | 0.592 | 0.602 | 0.588 | 0.935 | 0.99 | 1.06 | 0.985 | 1.03 | – | 0.601 | 0.646 | 0.588 | –
15 | LCLC-97TM1 | 0.411 | 0.455 | 0.476 | 0.289 | 0.382 | 0.471 | 0.483 | 0.407 | 0.383 | 0.396 | 0.74 | 1.17 | 1.01 | 0.927 | 0.725 | 0.46 | 0.479 | 0.459 | 0.475 | 0.435
